Assay results reported in BigSolDB 2.1.

CC(C)(O)P1(=O)OCC2(CO1)COP(=O)(C(C)(C)O)OC2 (stereo not given)
Conditions | solubility (mole fraction)
in acetic acid, 293.16 K | 0.00691
in acetic acid, 298.15 K | 0.0078
in acetic acid, 303.14 K | 0.00907
in acetic acid, 307.96 K | 0.0104
in acetic acid, 312.97 K | 0.0114
in acetic acid, 318.05 K | 0.0131
in acetic acid, 323.15 K | 0.015
in acetic acid, 328.05 K | 0.0173
in acetic acid, 333.04 K | 0.0196
in acetic acid, 338.14 K | 0.0231
in acetone, 293.6 K | 0.000582
in acetone, 298.44 K | 0.000762
in acetone, 303.35 K | 0.00095
in acetone, 308.29 K | 0.00124
in acetone, 313.27 K | 0.00159
in acetone, 318.4 K | 0.00194
in acetone, 323.3 K | 0.00234
in ethanol, 294.15 K | 0.00153
in ethanol, 297.63 K | 0.00184
in ethanol, 303.05 K | 0.00231
in ethanol, 307.95 K | 0.00269
in ethanol, 313.15 K | 0.00346
in ethanol, 318.16 K | 0.00391
in ethanol, 322.95 K | 0.00476
in ethanol, 327.84 K | 0.00582
in ethanol, 332.93 K | 0.00666
in ethanol, 337.94 K | 0.00846
in methanol, 293.13 K | 0.00585
in methanol, 298.15 K | 0.00665
in methanol, 302.94 K | 0.00751
in methanol, 307.75 K | 0.00875
in methanol, 312.76 K | 0.00998
in methanol, 317.95 K | 0.0117
in methanol, 323.05 K | 0.0136
in water, 293.13 K | 0.00564
in water, 298.01 K | 0.00585
in water, 303.15 K | 0.00607
in water, 308.16 K | 0.00631
in water, 313.05 K | 0.00658
in water, 317.89 K | 0.00692
in water, 323.05 K | 0.00723
in water, 328.13 K | 0.00754
in water, 332.95 K | 0.00793
in water, 337.94 K | 0.00826
in water, 342.86 K | 0.00867
